Measurements published in patent publication US20230167155A1, “COMPOSITIONS AND METHODS” (KING'S COLLEGE LONDON, priority 2020, published 2023).
Entries after “also recorded” stand apart in the source; their conditions may differ. Where no end group is shown, it is not given here. The star is where a group is joined. Myristoyl = CCCCCCCCCCCCCC(=O)*

How the values were obtained:
ApoE−/− mice [1] = test: Regression of established atheroma, weekly IV injections (Oil Red O en face, aortic root); type: in vivo, mouse; set-up: regression of atherosclerosis compared to PTL060 and untailed 3-MP: dose or concentration left out as unconfirmed
Description: For all atherosclerosis work, male ApoE−/− mice, from the age of 6-weeks, were fed with a high fat diet (HFD) consisting 35 kcal % fat, 1.25% cholesterol, and 0.5% cholic acid (Special Diet Services, Essex UK). Aortas were transplanted 2 weeks after starting the HFD, using a sleeve anastomosis technique described previously^11. Briefly, a 5 mm of the segment of the infrarenal donor aorta, flushed with 300 μl of saline containing 50 U of heparin, was transplanted into ApoE−/− recipient abdomen aortas (N=6 per group). Blood flow was confirmed by direct inspection after removal of the clamps. Mice were fed a HFD for 6-12 weeks post-transplantation before the experiment was terminated (Suppl FIG. 1A). To assess prevention of atheroma, mice (n=6 per group) received a single injection of PTL060 or controls by tail vein, and the experiments terminated 1-3 weeks later (Suppl FIG. 1B). For regression experiments, baseline groups (n=6) were fed a HFD to the age of 22 weeks before the mice were sacrificed. Experimental or control groups (n=3-6 per group) received weekly injections by tail vein for 3-6 weeks, beginning at age of 22 weeks before the experiments were terminated when mice were 25-28 weeks old (Suppl FIG. 1C).
Atherosclerotic lesions were evaluated as previously described^11. Simply, the entire length of the aorta was perfused with PBS, dissected using a dissecting microscope, longitudinally opened and stained with Oil Red O (ORO) solution (Sigma, UK) for 30 minutes, before being photographed with a digital camera (DSC-W320, Sony, Japan). The total aortic area and lesional area were measured by using Image J. Aortas from every animal were assessed. To assess lesions in the aortic sinus, hearts were embedded in paraffin, sectioned through the aortic root and incubated with elastin/van Gieson stain using the Accustain™ Elastin Stain kit (Sigma). Sections were examined on an Olympus U-ULH optical microscope (Olympus Optical Co. Ltd, Tokyo, Japan). Atheromatous lesional and total aortic root area was determined using Image-Pro Plus TM software version 4.0 (Media Cybernetics, Silver Spring, USA). At least three random sections were examined from each mouse in all groups.

ApoE−/− mice [2] = test: Regression by weekly adoptive transfer of CD11b+ cells / monocytes pre-incubated with compound; type: in vivo, mouse; conditions: HFD 16 weeks, weekly IV 6 weeks; monocytes pre-treated 30 minutes, PTL060 100 microM or PTL0GC-1 25 microM
Description: In more detail, mechanistic insights: direct effect on monocyte/macrophage phenotype. ApoE−/− mice were fed a high fat diet for 16 weeks (baseline), prior to weekly IV treatment for 6 weeks with monocytes from BL6 mice, pre-treated for 30 minutes with either PTL060 (100 microM) or PTL0GC-1 (actually used at ¼ concentration-25 microM).
Extent of atherosclerosis was explored by en face examination of the surface area of aorta containing plaques using Oil-Red-O
Leukocytes were isolated from the blood of mice aged 8-10 weeks, using anti-CD11b MicroBeads (Miltenyi Biotec Ltd, Surrey, UK) according to manufacturers' instructions. For cell labelling, 2×10^7 CD11b+ cells were incubated with 4×10^−6 M of either PKH26 or PKH2 fluorescent dyes (Sigma, UK) for 5 minutes at 25° C. according to manufacturers' protocols, with the reaction stopped using 1% BSA in PBS followed by three washes. Each recipient mouse received 0.5×10^6 cells by IV injection; in some experiments, the cells were incubated with PTL060 (100 μM in 0.5 mls) or equimolar controls for 30 minutes at room temperature and washed three times before immediate injection. For viability assays, murine bone marrow cells were incubated for 5 days in 6 well plates, counted and re-seeded at 2×10^5 cells/ml in 24 well plates with 25 ng/ml MCSF. […]

C57BL/6 mice [3] = test: Delayed type hypersensitivity, contact sensitivity to oxazolone (ear swelling); type: in vivo, mouse
Description: C57BL/6 mice were topically sensitised with oxazolone on the shaved abdomen on day 0. Treatment with either saline, PTL060 (10 mg/g), equimolar PTL0GC-1 or equimolar *3-MP was given on day 3 and day 5, the last immediately prior to re-challenge with oxazolone onto the right ear. The left ear was treated with vehicle alone. On day 6, the difference in swelling of the right and left ears was measured and is presented as D mean ear thickness.
This example uses a model of contact hypersensitivity. Here, mice are challenged on the abdomen with the contact sensitizer oxazolone, before a re-challenge […] on both sides of the ear with oxazolone (on the right) or vehicle alone (on the left).
Swelling of the ears, measured with a micrometer, reflects the influx of monocytes/macrophages and T cells in a typical delayed-type hypersensitivity (DTH) response.
FIG. 19: Model of DTH involving contact sensitivity to oxazolone. WT mice were administered a PAR-1 agonist or antagonist at the point of second exposure to oxazolone, before ear thickness was assessed 24 hours later, and mice sacrificed for immunohistological analysis of cross sections of the affected ears, to determine the proportional area occupied by CD68+ cells (macrophages). *p<0.05. **p<0.01. ***p<0.001

C57BL/6 mice [4] = test: Ischaemia reperfusion injury, acute kidney injury; type: in vivo, mouse; conditions: 2 doses 7.5 mg/ml
Description: In more detail, Model 3: Ischaemia reperfusion injury: PTL0GC-1 induces quicker recovery, associated with reduced fibrosis, post acute kidney injury. Both kidneys of C57BL/6 mice were exposed under recovery anaesthesia, and both renal arteries completely occluded by clamps for 30 minutes, prior to release. 2 doses of PTL0GC-1 (7.5 mg/ml) or saline were administered to the mice immediately prior to clamping, and immediately prior to clamp release. Mice were allowed to recover and then monitored for 3 weeks, prior to euthanasia.

[5] = Aristolochic acid nephropathy (AAN) model of renal fibrosis; type: in vivo; conditions: vs equimolar PTL060 or pure PAR-1 antagonist

[Myr2]-KSSKSPSKKDDKKPGDK(CO—CH2-S—CH2-CH2-Phe-Cha-Cha-Arg-Lys-Pro-Asn-Asp-Lys-NH2)NH2 (K(Myristoyl)SSKSPSKKDDKKPGDK-NH2; not fully specified (residue 17, N-terminus); also: branched: thioether-linked Phe-Cha-Cha-Arg-Lys-Pro-Asn-Asp-Lys-NH2 on Lys17 side chain) [PTL0GC-1]
regression of atherosclerosis, being confirmed (ApoE−/− mice [1]; ApoE−/− mice, vs equimolar PTL060 or pure PAR-1 antagonist): causes significant regression of atherosclerosis | regression of atherosclerosis compared to PTL060 and untailed 3-MP (ApoE−/− mice [1]; HFD 16 weeks, weekly IV for 6 weeks, equimolar to PTL060): Superior regression | regression after transfer of pre-treated monocytes (ApoE−/− mice [2]): the same degree of regression associated with IV treatment of the same reagents; also recorded: superior regression | DTH response, IP and SC administration (C57BL/6 mice [3]; intraperitoneal or subcutaneous, day 3 and day 5): efficacy of both IP and SC administration; also recorded: can inhibit the DTH response | difference in ear swelling (D mean ear thickness) (C57BL/6 mice [3]; intravenously, day 3 and day 5, equimolar to PTL060 (10 mg/g), vs PTL060 and 3-MP): biggest effect | macrophage infiltration into the skin (C57BL/6 mice [3]; model of DTH): reduced macrophage infiltration into the skin | impact on the AKI (C57BL/6 mice [4]; prior to clamping and prior to clamp release, renal arteries clamped 30 minutes): no impact on the AKI | kidney fibrosis, histological analysis (C57BL/6 mice [4]; 3 weeks): trend towards less fibrosis | renal function (C57BL/6 mice [4]; by 3 weeks): better renal function by 3 weeks | body weight during recovery phase (C57BL/6 mice [4]; monitored 3 weeks): gain weight quicker | development of renal fibrosis, being confirmed [5]: inhibits development of renal fibrosis
